US9133207B2, “Tetrandrine derivatives with substituted 5-carbon, preparation method and use thereof” (Hangzhou Bensheng Pharmaceutical Co., Ltd., priority 2011, dated 2015)
≈ marks a conversion by molar mass, not a printed value.

Key:
[1] = system: Kasumi-1 (acute myeloid leukemia M2 type, AML-M2); assay: Leukemia cell growth inhibition, MTT, 72 h (Example 5); type: cell-based, human; conditions: Homo sapiens, Kasumi 1
How it was run: (§1)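 Seed 6000 leukemia cells per well in 1640 medium containing 10% FBS. Add test compounds at different concentrations, mix, incubate 72 hours at 37° C in 5% CO2. Determine viable cells by MTT.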

[2] = system: NB4 (acute promyelocytic leukemia, AML); assay: as above; type: cell-based, human; conditions: Homo sapiens; 72 h, MTT
How it was run: as §1

[3] = system: Jurkat (acute lymphoblastic leukemia, ALL); assay: as above; type: cell-based, human; conditions: for IC50 / IC90: Homo sapiens, Jurkat, 72 h, MTT
How it was run: as §1

[4] = system: K562/adr (drug-resistant, chronic myeloid leukemia, CML); assay: as above; type: cell-based, human; conditions: Homo sapiens, K562/Adr; 72 h, MTT
How it was run: as §1

[5] = system: H9 (acute lymphoblastic leukemia, ALL); assay: as above; type: cell-based, human; conditions: Homo sapiens; 72 h, MTT
How it was run: as §1

[6] = system: MGC 803 (human gastric cancer cell); assay: Solid tumor cell growth inhibition, MTT, 72 h (Example 7); type: cell-based; conditions: Homo sapiens
How it was run: (§2)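 First, 4000 cells per well are plated in DMEM high glucose with 10% fetal bovine serum and incubated 24 h (37 °C, 5% CO2). Next, derivatives are added at different concentrations. After 72 h, MTT gives viable cell concentration, expressed as % of untreated control.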

[7] = system: Hela (human cervical cancer cell); assay: as above; type: cell-based; conditions: Homo sapiens; 72 h, MTT, Hela
How it was run: as §2

[8] = system: RKO (human colon adenocarcinoma cell); assay: as above; type: cell-based; conditions: Homo sapiens; 72 h, MTT, RKO
How it was run: as §2

[9] = system: SK-OV-3 (ovarian cancer cell); assay: as above; type: cell-based; conditions: Homo sapiens
How it was run: as §2

[10] = system: Huh7 (human liver cancer cell); assay: as above; type: cell-based; conditions: Homo sapiens; 72 h, MTT, Huh-7
How it was run: as §2

A549 (human lung cancer) = assay: as above; type: cell-based; conditions: Homo sapiens; 72 h, MTT, A549
How it was run: as §2

[11] = system: CNE (nasopharyngeal carcinoma cell); assay: as above; type: cell-based; conditions: Homo sapiens
How it was run: as §2

[12] = system: U87 MG (malignant glioma cell); assay: as above; type: cell-based; conditions: Homo sapiens, U-87 MG
How it was run: as §2

[13] = system: Becap37 (human breast cancer cell); assay: as above; type: cell-based; conditions: Homo sapiens; 72 h, MTT, Becap-37
How it was run: as §2

[14] = system: CaES-17 (esophageal cancer cell); assay: as above; type: cell-based, human; conditions: Homo sapiens, CaEs17; 72 h, MTT, CAES-17
How it was run: as §2

[15] = system: Hep-2 (laryngeal carcinoma); assay: as above; type: cell-based, human; conditions: Homo sapiens; 72 h, MTT, Hep 2
How it was run: as §2

PC-3 (prostate cancer) = assay: as above; type: cell-based, human; conditions: Homo sapiens; 72 h, MTT, PC-3
How it was run: as §2

[16] = system: PANC-1 (pancreatic cancer); assay: as above; type: cell-based, human; conditions: Homo sapiens; 72 h, MTT, PANC-1
How it was run: as §2

MG63 (osteosarcoma) = assay: as above; type: cell-based, human; conditions: Homo sapiens; 72 h, MTT, MG-63
How it was run: as §2

[17] = system: RPMI8226 (multiple myeloma); assay: Multiple myeloma cell growth inhibition, MTT, 72 h (Example 6); type: cell-based, human; conditions: Homo sapiens, RPMI-8226; 72 h, MTT, RPMI8226
How it was run: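 Viability was read by MTT after 72 h of compound exposure at 37 °C, 5% CO2. Each well held 6000 RPMI8226 cells in 1640 medium containing 10% fetal bovine serum, with derivatives added at various concentrations.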

COc1ccc2cc1Oc1ccc(cc1)C[C@H]1c3cc(c(OC)cc3CCN1C)Oc1c(OC)c(OC)c(CN3CCCCC3)c3c1[C@H](C2)N(C)CC3 [BS-TE-355]
IC50 [1]: 0.46 µg/mL (≈ 0.639 µM) | IC90 [1]: 2.55 µg/mL (≈ 3.54 µM) | IC50 [2]: 0.4 µg/mL (≈ 0.556 µM) | IC90 [2]: 1.4 µg/mL (≈ 1.94 µM) | IC50 [3]: 0.48 µg/mL (≈ 0.667 µM) | IC90 [3]: 4.52 µg/mL (≈ 6.28 µM) | anti-Jurkat activity increase over tetrandrine ([3]; compared with tetrandrine): ~4 fold | IC50 [4]: 0.44 µg/mL (≈ 0.611 µM) | IC90 [4]: 8.5 µg/mL (≈ 11.8 µM) | IC50 [5]: 0.63 µg/mL (≈ 0.875 µM) | IC90 [5]: 1.96 µg/mL (≈ 2.72 µM) | IC50 [6]: 0.92 µg/mL (≈ 1.28 µM) | IC90 [6]: 12 µg/mL (≈ 16.7 µM) | IC50 [7]: 2 µg/mL (≈ 2.78 µM) | IC90 [7]: 6.92 µg/mL (≈ 9.61 µM) | IC50 [8]: 0.25 µg/mL (≈ 0.347 µM) | IC90 [8]: 1.18 µg/mL (≈ 1.64 µM) | IC50 [9]: 3.5 µg/mL (≈ 4.86 µM) | IC90 [9]: > 16 µg/mL | IC50 [10]: 1.28 µg/mL (≈ 1.78 µM) | IC90 [10]: 2.45 µg/mL (≈ 3.4 µM) | IC50 (A549 (human lung cancer)): 3.4 µg/mL (≈ 4.72 µM) | IC90 (A549 (human lung cancer)): 14.9 µg/mL (≈ 20.7 µM) | IC50 [11]: 1.17 µg/mL (≈ 1.63 µM) | IC90 [11]: 3.64 µg/mL (≈ 5.06 µM) | IC50 [12]: 0.37 µg/mL (≈ 0.514 µM) | IC90 [12]: 1.16 µg/mL (≈ 1.61 µM) | IC50 [13]: 0.76 µg/mL (≈ 1.06 µM) | IC90 [13]: 2.69 µg/mL (≈ 3.74 µM) | IC50 [14]: 1.42 µg/mL (≈ 1.97 µM) | IC90 [14]: 11 µg/mL (≈ 15.3 µM) | IC50 [15]: 3.22 µg/mL (≈ 4.47 µM) | IC90 [15]: 8.45 µg/mL (≈ 11.7 µM) | IC50 (PC-3 (prostate cancer)): 1.83 µg/mL (≈ 2.54 µM) | IC90 (PC-3 (prostate cancer)): 3.65 µg/mL (≈ 5.07 µM) | IC50 [16]: 2.27 µg/mL (≈ 3.15 µM) | IC90 [16]: 8.22 µg/mL (≈ 11.4 µM) | IC50 (MG63 (osteosarcoma)): 0.77 µg/mL (≈ 1.07 µM) | IC90 (MG63 (osteosarcoma)): 1.27 µg/mL (≈ 1.76 µM) | IC50 [17]: 0.04 µg/mL (≈ 0.0556 µM) | IC90 [17]: 3.08 µg/mL (≈ 4.28 µM)

COc1ccc2cc1Oc1ccc(cc1)C[C@H]1c3cc(c(OC)cc3CCN1C)Oc1c(OC)c(OC)c(CN3CCCN(C)CC3)c3c1[C@H](C2)N(C)CC3 [BS-TE-356]
IC50 [1]: 1.24 µg/mL (≈ 1.66 µM) | IC90 [1]: 3.2 µg/mL (≈ 4.27 µM) | IC50 [2]: 0.63 µg/mL (≈ 0.841 µM) | IC90 [2]: 2.17 µg/mL (≈ 2.9 µM) | IC50 [3]: 1.41 µg/mL (≈ 1.88 µM) | IC90 [3]: 5.41 µg/mL (≈ 7.22 µM) | IC50 [4]: 0.79 µg/mL (≈ 1.05 µM) | IC90 [4]: 2.4 µg/mL (≈ 3.2 µM) | IC50 [5]: 1.54 µg/mL (≈ 2.06 µM) | IC90 [5]: 2.21 µg/mL (≈ 2.95 µM) | IC50 [6]: 1.26 µg/mL (≈ 1.68 µM) | IC90 [6]: 1.88 µg/mL (≈ 2.51 µM) | IC50 [7]: 1.55 µg/mL (≈ 2.07 µM) | IC90 [7]: 5 µg/mL (≈ 6.68 µM) | IC50 [8]: 0.51 µg/mL (≈ 0.681 µM) | IC90 [8]: 0.91 µg/mL (≈ 1.22 µM) | IC50 [9]: 2.19 µg/mL (≈ 2.92 µM) | IC90 [9]: 4 µg/mL (≈ 5.34 µM) | IC50 [10]: 1.3 µg/mL (≈ 1.74 µM) | IC90 [10]: 1.67 µg/mL (≈ 2.23 µM) | IC50 (A549 (human lung cancer)): 3.5 µg/mL (≈ 4.67 µM) | IC90 (A549 (human lung cancer)): 10.5 µg/mL (≈ 14 µM) | IC50 [11]: 0.94 µg/mL (≈ 1.26 µM) | IC90 [11]: 2.59 µg/mL (≈ 3.46 µM) | IC50 [12]: 1.11 µg/mL (≈ 1.48 µM) | IC90 [12]: 2.02 µg/mL (≈ 2.7 µM) | IC50 [13]: 1.63 µg/mL (≈ 2.18 µM) | IC90 [13]: 3 µg/mL (≈ 4.01 µM) | IC50 [14]: 1 µg/mL (≈ 1.34 µM) | IC90 [14]: 9.26 µg/mL (≈ 12.4 µM) | IC50 [15]: 3.37 µg/mL (≈ 4.5 µM) | IC90 [15]: 7.54 µg/mL (≈ 10.1 µM) | IC50 (PC-3 (prostate cancer)): 3.4 µg/mL (≈ 4.54 µM) | IC90 (PC-3 (prostate cancer)): 5 µg/mL (≈ 6.68 µM) | IC50 [16]: 1.62 µg/mL (≈ 2.16 µM) | IC90 [16]: 4.58 µg/mL (≈ 6.12 µM) | IC50 (MG63 (osteosarcoma)): 0.49 µg/mL (≈ 0.654 µM) | IC90 (MG63 (osteosarcoma)): 0.62 µg/mL (≈ 0.828 µM) | IC50 [17]: 0.11 µg/mL (≈ 0.147 µM) | IC90 [17]: 2.43 µg/mL (≈ 3.24 µM)
